Source: the supplement of paper PMC4862054

What follows are compounds tested on MFM-223 (assay: normalised viability (% of control), CellTiter-Blue; higher = more viable cells (about 100 = DMSO control)). Settings: 10 nM; incubation time: 72 h.
Summary of the method: (§1)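 Vehicle (100) and a positive kill control (0) anchored the normalisation of each plate, and Z'-factor was used for quality control. Breast cancer cell lines in 20 µl suspension were incubated 72 h over compound in 5 µl medium in 384-well plates, followed by CellTiter-Blue at 560/590 nm. The value is normalised viability at a single listed concentration of the series.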

SMILES | normalised viability [%]
N#Cc1ccc(C(c2ccc(C#N)cc2)n2cncn2)cc1 [Letrozole] | 58.8
C1CN1c1nc(N2CC2)nc(N2CC2)n1 [Triethylenemelamine] | 99.4
CCCS(=O)(=O)Nc1ccc(F)c(C(=O)c2c[nH]c3ncc(-c4ccc(Cl)cc4)cc23)c1F [Vemurafenib] | 87.9
O=C(O)C(=O)O.[NH-][C@@H]1CCCC[C@H]1[NH-].[Pt+2] [Oxaliplatin] | 98.6
Cc1ccc(-c2cc(C(F)(F)F)nn2-c2ccc(S(N)(=O)=O)cc2)cc1 [Celecoxib] | 95.9
NCCCNCCSP(=O)(O)O [Amifostine] | 81.8
C[C@H]1C[C@@H]2[C@H]([C@@H](O)C[C@@]3(C)[C@H]2CC[C@]3(O)C(=O)CO)[C@@]2(C)C=CC(=O)C=C12 [Methylprednisolone] | 89.4
CCc1cncnc1N1CCN(Cc2nc3ccc(C(F)(F)F)cc3[nH]2)CC1 | 103
Oc1ncc(N(CCCl)CCCl)c(O)n1 [Uracil mustard] | 99.2
CC1=C(/C=C/C(C)=C/C=C/C(C)=C/C(=O)O)C(C)(C)CCC1 [Tretinoin] | 92.6

Same assay, conditions: 100 nM; incubation time: 72 h

SMILES | normalised viability [%]
COc1cc2c(Oc3ccc4[nH]c(C)cc4c3F)ncnc2cc1OCCCN1CCCC1 [Cediranib] | 87
C=CC(=O)N1CCC[C@@H](n2nc(-c3ccc(Oc4ccccc4)cc3)c3c(N)ncnc32)C1 | 83
Cc1cnc(NC(=O)Nc2cc(Br)c(C)cc2OC[C@@H]2CNCCO2)cn1 | 98.8

Same assay, conditions: 1000 nM; incubation time: 72 h

SMILES | normalised viability [%]
Nc1nc(F)nc2c1ncn2[C@@H]1O[C@H](CO)[C@@H](O)[C@@H]1O [Fludarabine] | 106
O=C(O)C1(C(=O)O)CCC1.[NH2-].[NH2-].[Pt+2] [Carboplatin] | 98.4
N#Cc1ccc(C(c2ccc(C#N)cc2)n2cncn2)cc1 [Letrozole] | 70.5
C1CN1c1nc(N2CC2)nc(N2CC2)n1 [Triethylenemelamine] | 98.3
CCCS(=O)(=O)Nc1ccc(F)c(C(=O)c2c[nH]c3ncc(-c4ccc(Cl)cc4)cc23)c1F [Vemurafenib] | 95.4
O=C(O)C(=O)O.[NH-][C@@H]1CCCC[C@H]1[NH-].[Pt+2] [Oxaliplatin] | 94.1
Cc1ccc(-c2cc(C(F)(F)F)nn2-c2ccc(S(N)(=O)=O)cc2)cc1 [Celecoxib] | 92.1
NCCCNCCSP(=O)(O)O [Amifostine] | 82.1
COc1cc2c(Oc3ccc4[nH]c(C)cc4c3F)ncnc2cc1OCCCN1CCCC1 [Cediranib] | 47.2
C[C@H]1C[C@@H]2[C@H]([C@@H](O)C[C@@]3(C)[C@H]2CC[C@]3(O)C(=O)CO)[C@@]2(C)C=CC(=O)C=C12 [Methylprednisolone] | 86.3
CCc1cncnc1N1CCN(Cc2nc3ccc(C(F)(F)F)cc3[nH]2)CC1 | 122
C=CC(=O)N1CCC[C@@H](n2nc(-c3ccc(Oc4ccccc4)cc3)c3c(N)ncnc32)C1 | 56.6
Oc1ncc(N(CCCl)CCCl)c(O)n1 [Uracil mustard] | 95.9
Cc1cnc(NC(=O)Nc2cc(Br)c(C)cc2OC[C@@H]2CNCCO2)cn1 | 79.5
CC1=C(/C=C/C(C)=C/C=C/C(C)=C/C(=O)O)C(C)(C)CCC1 [Tretinoin] | 89.7

Same assay, conditions: 10000 nM; incubation time: 72 h

SMILES | normalised viability [%]
Nc1nc(F)nc2c1ncn2[C@@H]1O[C@H](CO)[C@@H](O)[C@@H]1O [Fludarabine] | 100
O=C(O)C1(C(=O)O)CCC1.[NH2-].[NH2-].[Pt+2] [Carboplatin] | 48.7
N#Cc1ccc(C(c2ccc(C#N)cc2)n2cncn2)cc1 [Letrozole] | 49.2
C1CN1c1nc(N2CC2)nc(N2CC2)n1 [Triethylenemelamine] | 64.8
CCCS(=O)(=O)Nc1ccc(F)c(C(=O)c2c[nH]c3ncc(-c4ccc(Cl)cc4)cc23)c1F [Vemurafenib] | 85.6
O=C(O)C(=O)O.[NH-][C@@H]1CCCC[C@H]1[NH-].[Pt+2] [Oxaliplatin] | 50.5
Cc1ccc(-c2cc(C(F)(F)F)nn2-c2ccc(S(N)(=O)=O)cc2)cc1 [Celecoxib] | 86.3
NCCCNCCSP(=O)(O)O [Amifostine] | 96.4
C[C@H]1C[C@@H]2[C@H]([C@@H](O)C[C@@]3(C)[C@H]2CC[C@]3(O)C(=O)CO)[C@@]2(C)C=CC(=O)C=C12 [Methylprednisolone] | 74.8
CCc1cncnc1N1CCN(Cc2nc3ccc(C(F)(F)F)cc3[nH]2)CC1 | 82.7
Oc1ncc(N(CCCl)CCCl)c(O)n1 [Uracil mustard] | 99.8
CC1=C(/C=C/C(C)=C/C=C/C(C)=C/C(=O)O)C(C)(C)CCC1 [Tretinoin] | 84.3

These compounds were tested on MDA-MB-468 in the same assay as above. Settings: 1 nM; incubation time: 72 h.
Summary of the method: as §1

SMILES | normalised viability [%]
COc1cc2c(Oc3ccc4[nH]c(C)cc4c3F)ncnc2cc1OCCCN1CCCC1 [Cediranib] | 92.5
C=CC(=O)N1CCC[C@@H](n2nc(-c3ccc(Oc4ccccc4)cc3)c3c(N)ncnc32)C1 | 99.9
Cc1cnc(NC(=O)Nc2cc(Br)c(C)cc2OC[C@@H]2CNCCO2)cn1 | 106

Same assay, conditions: 10 nM; incubation time: 72 h

SMILES | normalised viability [%]
Nc1nc(F)nc2c1ncn2[C@@H]1O[C@H](CO)[C@@H](O)[C@@H]1O [Fludarabine] | 98.8
O=C(O)C1(C(=O)O)CCC1.[NH2-].[NH2-].[Pt+2] [Carboplatin] | 100
N#Cc1ccc(C(c2ccc(C#N)cc2)n2cncn2)cc1 [Letrozole] | 101
C1CN1c1nc(N2CC2)nc(N2CC2)n1 [Triethylenemelamine] | 112
CCCS(=O)(=O)Nc1ccc(F)c(C(=O)c2c[nH]c3ncc(-c4ccc(Cl)cc4)cc23)c1F [Vemurafenib] | 113
O=C(O)C(=O)O.[NH-][C@@H]1CCCC[C@H]1[NH-].[Pt+2] [Oxaliplatin] | 98.7
Cc1ccc(-c2cc(C(F)(F)F)nn2-c2ccc(S(N)(=O)=O)cc2)cc1 [Celecoxib] | 96.6
NCCCNCCSP(=O)(O)O [Amifostine] | 102
C[C@H]1C[C@@H]2[C@H]([C@@H](O)C[C@@]3(C)[C@H]2CC[C@]3(O)C(=O)CO)[C@@]2(C)C=CC(=O)C=C12 [Methylprednisolone] | 92.7
CCc1cncnc1N1CCN(Cc2nc3ccc(C(F)(F)F)cc3[nH]2)CC1 | 107
Oc1ncc(N(CCCl)CCCl)c(O)n1 [Uracil mustard] | 109
CC1=C(/C=C/C(C)=C/C=C/C(C)=C/C(=O)O)C(C)(C)CCC1 [Tretinoin] | 99

Same assay, conditions: 100 nM; incubation time: 72 h

SMILES | normalised viability [%]
COc1cc2c(Oc3ccc4[nH]c(C)cc4c3F)ncnc2cc1OCCCN1CCCC1 [Cediranib] | 89.7
C=CC(=O)N1CCC[C@@H](n2nc(-c3ccc(Oc4ccccc4)cc3)c3c(N)ncnc32)C1 | 78.3
Cc1cnc(NC(=O)Nc2cc(Br)c(C)cc2OC[C@@H]2CNCCO2)cn1 | 110

Same assay, conditions: 1000 nM; incubation time: 72 h

SMILES | normalised viability [%]
Nc1nc(F)nc2c1ncn2[C@@H]1O[C@H](CO)[C@@H](O)[C@@H]1O [Fludarabine] | 112
O=C(O)C1(C(=O)O)CCC1.[NH2-].[NH2-].[Pt+2] [Carboplatin] | 98.9
N#Cc1ccc(C(c2ccc(C#N)cc2)n2cncn2)cc1 [Letrozole] | 115
C1CN1c1nc(N2CC2)nc(N2CC2)n1 [Triethylenemelamine] | 112
CCCS(=O)(=O)Nc1ccc(F)c(C(=O)c2c[nH]c3ncc(-c4ccc(Cl)cc4)cc23)c1F [Vemurafenib] | 107
O=C(O)C(=O)O.[NH-][C@@H]1CCCC[C@H]1[NH-].[Pt+2] [Oxaliplatin] | 97.7
Cc1ccc(-c2cc(C(F)(F)F)nn2-c2ccc(S(N)(=O)=O)cc2)cc1 [Celecoxib] | 107
NCCCNCCSP(=O)(O)O [Amifostine] | 93
COc1cc2c(Oc3ccc4[nH]c(C)cc4c3F)ncnc2cc1OCCCN1CCCC1 [Cediranib] | 95.2
C[C@H]1C[C@@H]2[C@H]([C@@H](O)C[C@@]3(C)[C@H]2CC[C@]3(O)C(=O)CO)[C@@]2(C)C=CC(=O)C=C12 [Methylprednisolone] | 117
CCc1cncnc1N1CCN(Cc2nc3ccc(C(F)(F)F)cc3[nH]2)CC1 | 108
C=CC(=O)N1CCC[C@@H](n2nc(-c3ccc(Oc4ccccc4)cc3)c3c(N)ncnc32)C1 | 69.3
Oc1ncc(N(CCCl)CCCl)c(O)n1 [Uracil mustard] | 97.5
Cc1cnc(NC(=O)Nc2cc(Br)c(C)cc2OC[C@@H]2CNCCO2)cn1 | 56.6
CC1=C(/C=C/C(C)=C/C=C/C(C)=C/C(=O)O)C(C)(C)CCC1 [Tretinoin] | 117

Same assay, conditions: 10000 nM; incubation time: 72 h

SMILES | normalised viability [%]
Nc1nc(F)nc2c1ncn2[C@@H]1O[C@H](CO)[C@@H](O)[C@@H]1O [Fludarabine] | 98.9
O=C(O)C1(C(=O)O)CCC1.[NH2-].[NH2-].[Pt+2] [Carboplatin] | 83.3
N#Cc1ccc(C(c2ccc(C#N)cc2)n2cncn2)cc1 [Letrozole] | 92.7
C1CN1c1nc(N2CC2)nc(N2CC2)n1 [Triethylenemelamine] | 107
CCCS(=O)(=O)Nc1ccc(F)c(C(=O)c2c[nH]c3ncc(-c4ccc(Cl)cc4)cc23)c1F [Vemurafenib] | 63.5
O=C(O)C(=O)O.[NH-][C@@H]1CCCC[C@H]1[NH-].[Pt+2] [Oxaliplatin] | 56.5
Cc1ccc(-c2cc(C(F)(F)F)nn2-c2ccc(S(N)(=O)=O)cc2)cc1 [Celecoxib] | 95
NCCCNCCSP(=O)(O)O [Amifostine] | 91.3
C[C@H]1C[C@@H]2[C@H]([C@@H](O)C[C@@]3(C)[C@H]2CC[C@]3(O)C(=O)CO)[C@@]2(C)C=CC(=O)C=C12 [Methylprednisolone] | 88.2
CCc1cncnc1N1CCN(Cc2nc3ccc(C(F)(F)F)cc3[nH]2)CC1 | 103
Oc1ncc(N(CCCl)CCCl)c(O)n1 [Uracil mustard] | 85.7
CC1=C(/C=C/C(C)=C/C=C/C(C)=C/C(=O)O)C(C)(C)CCC1 [Tretinoin] | 113

These compounds were tested on CAL-85-1 in the same assay as above. Settings: 0.3 nM; incubation time: 72 h.
Summary of the method: as §1

SMILES | normalised viability [%]
COc1cc2c(Oc3ccc4[nH]c(C)cc4c3F)ncnc2cc1OCCCN1CCCC1 [Cediranib] | 104
C=CC(=O)N1CCC[C@@H](n2nc(-c3ccc(Oc4ccccc4)cc3)c3c(N)ncnc32)C1 | 87.8
Cc1cnc(NC(=O)Nc2cc(Br)c(C)cc2OC[C@@H]2CNCCO2)cn1 | 90.6

Same assay, conditions: 3 nM; incubation time: 72 h

SMILES | normalised viability [%]
Nc1nc(F)nc2c1ncn2[C@@H]1O[C@H](CO)[C@@H](O)[C@@H]1O [Fludarabine] | 88
O=C(O)C1(C(=O)O)CCC1.[NH2-].[NH2-].[Pt+2] [Carboplatin] | 98
N#Cc1ccc(C(c2ccc(C#N)cc2)n2cncn2)cc1 [Letrozole] | 86.9
C1CN1c1nc(N2CC2)nc(N2CC2)n1 [Triethylenemelamine] | 104
CCCS(=O)(=O)Nc1ccc(F)c(C(=O)c2c[nH]c3ncc(-c4ccc(Cl)cc4)cc23)c1F [Vemurafenib] | 92.8
O=C(O)C(=O)O.[NH-][C@@H]1CCCC[C@H]1[NH-].[Pt+2] [Oxaliplatin] | 99
Cc1ccc(-c2cc(C(F)(F)F)nn2-c2ccc(S(N)(=O)=O)cc2)cc1 [Celecoxib] | 91.6
NCCCNCCSP(=O)(O)O [Amifostine] | 97.5
COc1cc2c(Oc3ccc4[nH]c(C)cc4c3F)ncnc2cc1OCCCN1CCCC1 [Cediranib] | 96.5
C[C@H]1C[C@@H]2[C@H]([C@@H](O)C[C@@]3(C)[C@H]2CC[C@]3(O)C(=O)CO)[C@@]2(C)C=CC(=O)C=C12 [Methylprednisolone] | 87.6
CCc1cncnc1N1CCN(Cc2nc3ccc(C(F)(F)F)cc3[nH]2)CC1 | 102
C=CC(=O)N1CCC[C@@H](n2nc(-c3ccc(Oc4ccccc4)cc3)c3c(N)ncnc32)C1 | 84.6
Oc1ncc(N(CCCl)CCCl)c(O)n1 [Uracil mustard] | 94.2
Cc1cnc(NC(=O)Nc2cc(Br)c(C)cc2OC[C@@H]2CNCCO2)cn1 | 89.4
CC1=C(/C=C/C(C)=C/C=C/C(C)=C/C(=O)O)C(C)(C)CCC1 [Tretinoin] | 85.3

Same assay, conditions: 10 nM; incubation time: 72 h

SMILES | normalised viability [%]
COc1cc2c(Oc3ccc4[nH]c(C)cc4c3F)ncnc2cc1OCCCN1CCCC1 [Cediranib] | 99.8
C=CC(=O)N1CCC[C@@H](n2nc(-c3ccc(Oc4ccccc4)cc3)c3c(N)ncnc32)C1 | 96.9
Cc1cnc(NC(=O)Nc2cc(Br)c(C)cc2OC[C@@H]2CNCCO2)cn1 | 106

Same assay, conditions: 30 nM; incubation time: 72 h

SMILES | normalised viability [%]
Nc1nc(F)nc2c1ncn2[C@@H]1O[C@H](CO)[C@@H](O)[C@@H]1O [Fludarabine] | 87.2
O=C(O)C1(C(=O)O)CCC1.[NH2-].[NH2-].[Pt+2] [Carboplatin] | 82.2
N#Cc1ccc(C(c2ccc(C#N)cc2)n2cncn2)cc1 [Letrozole] | 85
C1CN1c1nc(N2CC2)nc(N2CC2)n1 [Triethylenemelamine] | 87.6
CCCS(=O)(=O)Nc1ccc(F)c(C(=O)c2c[nH]c3ncc(-c4ccc(Cl)cc4)cc23)c1F [Vemurafenib] | 84.6
